Test results from patent US9763874B2, “Nanoparticles loaded with chemotherapeutic antitumoral drug” (priority 2011, dated 2017).

Experiments:
[1] = test system: HCC; details: IV infusion in HCC; cited from earlier work
[2] = test system: healthy Wistar rats; test: Example 2: adverse effects after a single IV bolus injection (mortality, lung injuries); type: in vivo, rat; details: 7.5 mg/kg single IV bolus
Description: The aim of the present in vivo study was to establish and assess a rat model able to induce toxicological signs and lung injuries similar to severe pulmonary adverse events observed in said clinical trial.
The dose levels of 5, 7.5 and 10 mg/kg were chosen according to previous in vivo studies, they respectively correspond to 30 mg/m2, 45 mg/m2 and 60 mg/m2 human doses.
The study involved finally 123 male Wistar rats.
Rats were weighted and distributed according to their individual body weight to form […] the day of IV treatment.
Drug suspension was administered according to the body weight of rat determined just before the administration, so as to administer a dose volume of 670 μl of a 3.71 mg/ml suspension to a 250 g rat. • The rats from groups 13 to 16 received a single IV injection of Doxorubicin at 7.5 mg/kg equivalent Doxorubicin HCl (Q1Dx1). […] Solution was administered according to the body weight of rat determined just before the administration, so as to administer a dose volume of 670 μl solution to a 250 g rat. • The rats from group 21 (Untreated control group) received no treatment.
Treatment allocation was decided at random and was as disclosed in Table 2.

[3] = test system: unresectable HCC; details: patients with unresectable HCC; cited from earlier work

Row | SMILES | objective response rate [1] | mortality and lung injuries [2] | overall survival over placebo [3]
1 | COc1cccc2c1C(=O)c1c(O)c3c(c(O)c1C2=O)C[C@@](O)(C(=O)CO)C[C@@H]3O[C@H]1C[C@H](N)[C@H](O)[C@H](C)O1 [Doxorubicin, doxorubicin] | 5-10% | Neither mortality, nor lung injuries | –
2 | CNC(=O)c1cc(Oc2ccc(NC(=O)Nc3ccc(Cl)c(C(F)(F)F)c3)cc2)ccn1 [sorafenib] | – | – | increase even modest
